From the CheMixHub ionic liquid set
± gives the uncertainty stated by the source.

Experiment: xn = mol fraction of the nth substance listed

Structure (SMILES): CCCC[n+]1ccn(C)c1.F[B-](F)(F)F + O
- electrical conductivity (288.15 K, 100 kPa, x1 = 5.584e-05): 0.0319 ± 0.00068 S/m
- viscosity (288.15 K, 100.3 kPa, x1 = 0.0005439): 1.148 ± 0.011 mPa·s
- viscosity (288.15 K, 100.3 kPa, x1 = 0.0009901): 1.163 ± 0.011 mPa·s
- viscosity (288.15 K, 100.3 kPa, x1 = 0.003018): 1.205 ± 0.011 mPa·s
- viscosity (288.15 K, 100.3 kPa, x1 = 0.00501): 1.247 ± 0.012 mPa·s
- viscosity (288.15 K, 100.3 kPa, x1 = 0.006973): 1.283 ± 0.012 mPa·s
- viscosity (288.15 K, 100.3 kPa, x1 = 0.009052): 1.332 ± 0.012 mPa·s
- viscosity (288.15 K, 100.3 kPa, x1 = 0.01199): 1.394 ± 0.012 mPa·s
- viscosity (288.15 K, 100.3 kPa, x1 = 0.01499): 1.46 ± 0.013 mPa·s
- viscosity (288.15 K, 100.3 kPa, x1 = 0.017): 1.506 ± 0.013 mPa·s
- viscosity (293.15 K, 100 kPa, x1 = 0.0003603): 1.03 ± 0.061 mPa·s
- viscosity (293.15 K, 100 kPa, x1 = 0.0003729): 1.03 ± 0.061 mPa·s
- viscosity (293.15 K, 100 kPa, x1 = 0.0007203): 1.062 ± 0.061 mPa·s
- viscosity (293.15 K, 100 kPa, x1 = 0.0007257): 1.062 ± 0.061 mPa·s
- viscosity (293.15 K, 100 kPa, x1 = 0.00108): 1.093 ± 0.061 mPa·s
- viscosity (293.15 K, 100 kPa, x1 = 0.0011): 1.093 ± 0.061 mPa·s
- viscosity (293.15 K, 100.3 kPa, x1 = 0.0005439): 1.012 ± 0.01 mPa·s
- viscosity (293.15 K, 100.3 kPa, x1 = 0.0009901): 1.024 ± 0.01 mPa·s
- viscosity (293.15 K, 100.3 kPa, x1 = 0.003018): 1.058 ± 0.01 mPa·s
- viscosity (293.15 K, 100.3 kPa, x1 = 0.00501): 1.095 ± 0.011 mPa·s
- viscosity (293.15 K, 100.3 kPa, x1 = 0.006973): 1.126 ± 0.011 mPa·s
- viscosity (293.15 K, 100.3 kPa, x1 = 0.009052): 1.168 ± 0.011 mPa·s
- viscosity (293.15 K, 100.3 kPa, x1 = 0.01199): 1.221 ± 0.011 mPa·s
- viscosity (293.15 K, 100.3 kPa, x1 = 0.01499): 1.277 ± 0.012 mPa·s
- viscosity (293.15 K, 100.3 kPa, x1 = 0.017): 1.315 ± 0.012 mPa·s
- viscosity (293.15 K, 101 kPa, x2 = 0.03402): 115.2 ± 3.6 mPa·s
- viscosity (293.15 K, 101 kPa, x2 = 0.06153): 102.2 ± 3.1 mPa·s
- electrical conductivity (293.15 K, 101 kPa, x2 = 0.1014): 0.5 ± 0.03 S/m
- viscosity (293.15 K, 101 kPa, x2 = 0.3977): 26.7 ± 2.4 mPa·s
- electrical conductivity (293.2 K, 101 kPa, frequency 6e-05 MHz, x2 = 0.2): 0.897 ± 0.009 S/m
- electrical conductivity (293.2 K, 101 kPa, frequency 6e-05 MHz, x2 = 0.4): 1.401 ± 0.014 S/m
- electrical conductivity (293.2 K, 101 kPa, frequency 6e-05 MHz, x2 = 0.6): 2.25 ± 0.023 S/m
- electrical conductivity (293.2 K, 101 kPa, frequency 6e-05 MHz, x2 = 0.8): 3.53 ± 0.035 S/m
- electrical conductivity (298.15 K, 100 kPa, x1 = 3.988e-05): 0.0281 ± 0.00069 S/m
- viscosity (298.15 K, 100 kPa, x1 = 0.0003603): 0.917 ± 0.06 mPa·s
- viscosity (298.15 K, 100 kPa, x1 = 0.0003729): 0.917 ± 0.061 mPa·s
- viscosity (298.15 K, 100 kPa, x1 = 0.0007203): 0.951 ± 0.061 mPa·s
- viscosity (298.15 K, 100 kPa, x1 = 0.0007257): 0.951 ± 0.061 mPa·s
- viscosity (298.15 K, 100 kPa, x1 = 0.00108): 0.983 ± 0.061 mPa·s
- viscosity (298.15 K, 100 kPa, x1 = 0.0011): 0.983 ± 0.061 mPa·s
- viscosity (298.15 K, 100 kPa, x2 = 0.9487): 1.99 ± 0.1 mPa·s
- viscosity (298.15 K, 100.3 kPa, x1 = 0.0005439): 0.8998 ± 0.0097 mPa·s
- viscosity (298.15 K, 100.3 kPa, x1 = 0.0009901): 0.9108 ± 0.0098 mPa·s
- viscosity (298.15 K, 100.3 kPa, x1 = 0.003018): 0.9406 ± 0.0099 mPa·s
- viscosity (298.15 K, 100.3 kPa, x1 = 0.00501): 0.9719 ± 0.01 mPa·s
- viscosity (298.15 K, 100.3 kPa, x1 = 0.006973): 0.9993 ± 0.01 mPa·s
- viscosity (298.15 K, 100.3 kPa, x1 = 0.009052): 1.036 ± 0.01 mPa·s
- viscosity (298.15 K, 100.3 kPa, x1 = 0.01199): 1.081 ± 0.011 mPa·s
- viscosity (298.15 K, 100.3 kPa, x1 = 0.01499): 1.128 ± 0.011 mPa·s
- viscosity (298.15 K, 100.3 kPa, x1 = 0.017): 1.162 ± 0.011 mPa·s
- electrical conductivity (298.15 K, 101 kPa, x2 = 0): 0.194 ± 0.023 S/m
- viscosity (298.15 K, 101 kPa, x2 = 0): 116 ± 40 mPa·s
- viscosity (298.15 K, 101 kPa, x2 = 0.06153): 79.4 ± 1.9 mPa·s
- electrical conductivity (298.15 K, 101 kPa, x2 = 0.1036): 0.274 ± 0.033 S/m
- viscosity (298.15 K, 101 kPa, x2 = 0.1036): 81 ± 16 mPa·s
- viscosity (298.15 K, 101 kPa, x2 = 0.1135): 64.3 ± 1.7 mPa·s
- electrical conductivity (298.15 K, 101 kPa, x2 = 0.1877): 0.374 ± 0.045 S/m
- viscosity (298.15 K, 101 kPa, x2 = 0.1877): 59.5 ± 4.5 mPa·s
- electrical conductivity (298.15 K, 101 kPa, x2 = 0.2879): 0.528 ± 0.063 S/m
- viscosity (298.15 K, 101 kPa, x2 = 0.2879): 42.1 ± 4.2 mPa·s
- viscosity (298.15 K, 101 kPa, x2 = 0.3977): 22.3 ± 1.8 mPa·s
- electrical conductivity (298.15 K, 101 kPa, x2 = 0.4094): 0.83 ± 0.1 S/m
- viscosity (298.15 K, 101 kPa, x2 = 0.4094): 28.1 ± 2.8 mPa·s
- electrical conductivity (298.15 K, 101 kPa, x2 = 0.4954): 1.21 ± 0.15 S/m
- viscosity (298.15 K, 101 kPa, x2 = 0.4954): 20.8 ± 2.1 mPa·s
- electrical conductivity (298.15 K, 101 kPa, x2 = 0.5908): 1.65 ± 0.2 S/m
- viscosity (298.15 K, 101 kPa, x2 = 0.5908): 14.6 ± 1.6 mPa·s
- electrical conductivity (298.15 K, 101 kPa, x2 = 0.6979): 2.42 ± 0.29 S/m
- viscosity (298.15 K, 101 kPa, x2 = 0.6979): 9.5 ± 1.1 mPa·s
- electrical conductivity (298.15 K, 101 kPa, x2 = 0.7971): 3.38 ± 0.41 S/m
- viscosity (298.15 K, 101 kPa, x2 = 0.7971): 5.92 ± 0.74 mPa·s
- electrical conductivity (298.15 K, 101 kPa, x2 = 0.8493): 4.79 ± 0.29 S/m
- electrical conductivity (298.15 K, 101 kPa, x2 = 0.8953): 4.01 ± 0.48 S/m
- viscosity (298.15 K, 101 kPa, x2 = 0.8953): 3.2 ± 0.43 mPa·s
- electrical conductivity (298.15 K, 101 kPa, x2 = 0.9496): 4.83 ± 0.29 S/m
- electrical conductivity (298.2 K, 101 kPa, frequency 6e-05 MHz, x2 = 0.2): 1.026 ± 0.01 S/m
- electrical conductivity (298.2 K, 101 kPa, frequency 6e-05 MHz, x2 = 0.4): 1.613 ± 0.016 S/m
- electrical conductivity (298.2 K, 101 kPa, frequency 6e-05 MHz, x2 = 0.6): 2.61 ± 0.026 S/m
- electrical conductivity (298.2 K, 101 kPa, frequency 6e-05 MHz, x2 = 0.8): 4.1 ± 0.041 S/m
- viscosity (303 K, 100 kPa, x1 = 0.6023): 18.87 ± 0.41 mPa·s
- viscosity (303.15 K, 100 kPa, x1 = 0.0003603): 0.835 ± 0.06 mPa·s
- viscosity (303.15 K, 100 kPa, x1 = 0.0003729): 0.835 ± 0.061 mPa·s
- viscosity (303.15 K, 100 kPa, x1 = 0.0007203): 0.868 ± 0.061 mPa·s
- viscosity (303.15 K, 100 kPa, x1 = 0.0007257): 0.868 ± 0.061 mPa·s
- viscosity (303.15 K, 100 kPa, x1 = 0.00108): 0.904 ± 0.061 mPa·s
- viscosity (303.15 K, 100 kPa, x1 = 0.0011): 0.904 ± 0.061 mPa·s
- viscosity (303.15 K, 100.3 kPa, x1 = 0.0005439): 0.8079 ± 0.0093 mPa·s
- viscosity (303.15 K, 100.3 kPa, x1 = 0.0009901): 0.8166 ± 0.0093 mPa·s
- viscosity (303.15 K, 100.3 kPa, x1 = 0.003018): 0.8426 ± 0.0094 mPa·s
- viscosity (303.15 K, 100.3 kPa, x1 = 0.00501): 0.87 ± 0.0096 mPa·s
- viscosity (303.15 K, 100.3 kPa, x1 = 0.006973): 0.8927 ± 0.0097 mPa·s
- viscosity (303.15 K, 100.3 kPa, x1 = 0.009052): 0.9275 ± 0.0099 mPa·s
- viscosity (303.15 K, 100.3 kPa, x1 = 0.01199): 0.9648 ± 0.01 mPa·s
- viscosity (303.15 K, 100.3 kPa, x1 = 0.01499): 1.006 ± 0.01 mPa·s
- viscosity (303.15 K, 100.3 kPa, x1 = 0.017): 1.034 ± 0.01 mPa·s
- viscosity (303.15 K, 101 kPa, x2 = 0): 74 ± 16 mPa·s
- viscosity (303.15 K, 101 kPa, x2 = 0.06153): 63.1 ± 1.3 mPa·s
- electrical conductivity (303.15 K, 101 kPa, x2 = 0.9252): 5.82 ± 0.35 S/m
- electrical conductivity (303.2 K, 101 kPa, frequency 6e-05 MHz, x2 = 0.2): 1.16 ± 0.012 S/m
- electrical conductivity (303.2 K, 101 kPa, frequency 6e-05 MHz, x2 = 0.4): 1.832 ± 0.018 S/m
- electrical conductivity (303.2 K, 101 kPa, frequency 6e-05 MHz, x2 = 0.6): 2.95 ± 0.03 S/m
- electrical conductivity (303.2 K, 101 kPa, frequency 6e-05 MHz, x2 = 0.8): 4.67 ± 0.047 S/m
- viscosity (308 K, 100 kPa, x1 = 0.6023): 16.04 ± 0.35 mPa·s
- electrical conductivity (308.15 K, 100 kPa, x1 = 3.988e-05): 0.0349 ± 0.00068 S/m
- electrical conductivity (308.15 K, 100 kPa, x1 = 5.584e-05): 0.0437 ± 0.00071 S/m
